Test results reported in PubChem BioAssay AID212 (DTP/NCI, 2004).
Several values for one entry are separate records, joined by “and”; a condition that tells them apart may be missing. Equal entries are not always repeated. Inconclusive results are not listed.

Test system: BDF1 mice, colon carcinoma 38 sc, T/C %
Test: NCI In Vivo Anticancer Drug Screen. Data for tumor model Colon Carcinoma 38 (subcutaneous) in B6D2F1 (BDF1) mice
Settings: endpoint: median tumor weight (est.), higher = larger tumour
Summary of the method: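 Ratio of survival or tumor size, compound-treated animals relative to vehicle controls, in tumor-bearing mice.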

[1] = dose: 12.5 mg/kg/injection, schedule: Q07DX002 (ip), vehicle: saline with Tween-80
[2] = dose: 12.5 mg/kg/injection, schedule: Q07DX002 (ip), vehicle: Klucel (hydroxypropylcellulose) (HPC)
[3] = dose: 25.0 mg/kg/injection, schedule: Q07DX002 (ip), vehicle: Klucel (hydroxypropylcellulose) (HPC)
[4] = dose: 50.0 mg/kg/injection, schedule: Q07DX002 (ip), vehicle: Klucel (hydroxypropylcellulose) (HPC)
[5] = dose: 100.0 mg/kg/injection, schedule: Q07DX002 (ip), vehicle: Klucel (hydroxypropylcellulose) (HPC)
[6] = dose: 200.0 mg/kg/injection, schedule: Q07DX002 (ip), vehicle: Klucel (hydroxypropylcellulose) (HPC)

SMILES: Cc1[nH]c(=O)[nH]c(=O)c1N(CCF)CCCl
- T/C (dose: 16.0 mg/kg/injection, schedule: Q07DX002 (ip), vehicle: Klucel (hydroxypropylcellulose) (HPC)): 69 % of control and 71 % of control
- T/C (dose: 32.0 mg/kg/injection, schedule: Q07DX002 (ip), vehicle: Klucel (hydroxypropylcellulose) (HPC)): 67 % of control and 79 % of control and 82 % of control
- T/C (dose: 64.0 mg/kg/injection, schedule: Q07DX002 (ip), vehicle: Klucel (hydroxypropylcellulose) (HPC)): 38 % of control
- T/C (dose: 64.0 mg/kg/injection, schedule: Q07DX003 (ip), vehicle: Klucel (hydroxypropylcellulose) (HPC)): 21 % of control and 28 % of control

SMILES: O=C1C2CC=CCC2C(=O)N1SC(Cl)(Cl)Cl (centres undefined)
- T/C (dose: 3.12 mg/kg/injection, schedule: Q07DX002 (ip), vehicle: saline with Tween-80): 107 % of control
- T/C (dose: 6.25 mg/kg/injection, schedule: Q07DX002 (ip), vehicle: saline with Tween-80): 110 % of control
- T/C [1]: 99 % of control
- T/C (dose: 25.0 mg/kg/injection, schedule: Q07DX002 (ip), vehicle: saline with Tween-80): 84 % of control

SMILES: CC(=O)OCC1OC(OC2=C(CC=C(C)C)C(=O)c3ccccc3C2=O)C(OC(C)=O)C(OC(C)=O)C1OC(C)=O (centres undefined)
- T/C [2]: 205 % of control and 81 % of control
- T/C [3]: 181 % of control
- T/C [4]: 113 % of control and 103 % of control
- T/C [5]: 151 % of control
- T/C [6]: 190 % of control

SMILES: Ic1ncnc2c1ncn2C1CCCO1 (centres undefined)
- T/C [2]: 68 % of control and 70 % of control
- T/C [3]: 52 % of control and 68 % of control
- T/C [5]: 56 % of control and 80 % of control
- T/C [6]: 81 % of control
- T/C (dose: 400.0 mg/kg/injection, schedule: Q07DX002 (ip), vehicle: Klucel (hydroxypropylcellulose) (HPC)): 55 % of control

SMILES: COP12(OCCO1)SC(C(F)(F)F)=C(C(F)(F)F)S2
- T/C (dose: 0.75 mg/kg/injection, schedule: Q07DX002 (ip), vehicle: saline with Tween-80): 81 % of control
- T/C (dose: 1.5 mg/kg/injection, schedule: Q07DX002 (ip), vehicle: saline with Tween-80): 92 % of control
- T/C (dose: 3.0 mg/kg/injection, schedule: Q07DX002 (ip), vehicle: saline with Tween-80): 84 % of control
- T/C (dose: 6.0 mg/kg/injection, schedule: Q07DX002 (ip), vehicle: saline with Tween-80): 83 % of control
- T/C (dose: 12.0 mg/kg/injection, schedule: Q07DX002 (ip), vehicle: saline with Tween-80): 75 % of control

SMILES: Cc1oc2c(C)c3oc(=O)cc(C)c3cc2c1CCl
- T/C [1]: 77 % of control and 89 % of control
- T/C (dose: 50.0 mg/kg/injection, schedule: Q07DX002 (ip), vehicle: saline with Tween-80): 74 % of control and 77 % of control
- T/C (dose: 200.0 mg/kg/injection, schedule: Q07DX002 (ip), vehicle: saline with Tween-80): 53 % of control
- T/C (dose: 400.0 mg/kg/injection, schedule: Q07DX002 (ip), vehicle: saline with Tween-80): 94 % of control

SMILES: CCc1c(CC(=O)O)c2cc(C)ccc2n1Cc1ccc(Cl)cc1
- T/C (dose: 3.13 mg/kg/injection, schedule: Q07DX002 (ip), vehicle: Klucel (hydroxypropylcellulose) (HPC)): 107 % of control
- T/C (dose: 6.25 mg/kg/injection, schedule: Q07DX002 (ip), vehicle: Klucel (hydroxypropylcellulose) (HPC)): 45 % of control
- T/C (dose: 6.25 mg/kg/injection, schedule: Q07DX003 (ip), vehicle: Klucel (hydroxypropylcellulose) (HPC)): 72 % of control
- T/C [2]: 76 % of control
- T/C (dose: 12.5 mg/kg/injection, schedule: Q07DX003 (ip), vehicle: Klucel (hydroxypropylcellulose) (HPC)): 74 % of control
- T/C [3]: 60 % of control
- T/C (dose: 25.0 mg/kg/injection, schedule: Q07DX003 (ip), vehicle: Klucel (hydroxypropylcellulose) (HPC)): 97 % of control
- T/C [4]: 98 % of control
- T/C (dose: 50.0 mg/kg/injection, schedule: Q07DX003 (ip), vehicle: Klucel (hydroxypropylcellulose) (HPC)): 116 % of control
- T/C [5]: 159 % of control
- T/C (dose: 100.0 mg/kg/injection, schedule: Q07DX003 (ip), vehicle: Klucel (hydroxypropylcellulose) (HPC)): 120 % of control
- T/C (dose: 200.0 mg/kg/injection, schedule: Q07DX003 (ip), vehicle: Klucel (hydroxypropylcellulose) (HPC)): 48 % of control
